From ChEMBL document CHEMBL3507680, “University of Dundee, Gates Library screen for HepG2 cell viability” come the findings set out here.

This data set can be described thus: Human HepG2 cell viability assay in 384 well format. The settings on record: HepG2 cells, read-out: Inhibition. On the set-up: dose 125 nL, time 70.5 hour; cytotoxicity at 70.5 h: concentration not given beside the values. The data set is classed as toxicity, cell-based.
`Cn1ccc2c(ccn2CC(=O)Nc2ccc(Br)cc2)c1=O`: the cytotoxicity at 70.5 h was found to be 30.5%.

As for `Cc1ccc(Oc2ncccc2C(=O)O)c(C)c1`, the cytotoxicity at 70.5 h is -4.94%. As for `CNC(=O)c1csc(-c2cccnc2)n1`, the figure is 2.96%. In the case of `Cc1c(NC(=O)C(C)N(C)C)c(=O)n(-c2ccccc2)n1C` (configuration not stated), the cytotoxicity at 70.5 h is -1.07%. As for `Cc1ccc(Oc2ncccc2C(=O)N(C)CCCN(C)C)c(C)c1`, the figure is -5.42%.

As to `Cc1ccc(Oc2ncccc2C(=O)N(C)CCCN(C)C)cc1`, the cytotoxicity at 70.5 h worked out at 0.617%. As for `COc1ccc(C(=O)Nc2cccc(SC)c2)c(OC)n1`, the figure is 26.2%; as for `CC1CN(c2ncccc2C(=O)Nc2cccc3c2CCCC3)CCN1` (configuration not stated), -5.69%; as for `CCCNc1ccc(C(=O)NCCc2cccc(OC)c2)cn1`, -3.99%. As for `O=C(NCC1CC1)c1cc(Br)cnc1N1CCCCC1`, the figure is -1.59%; as for `CCOC(=O)CNC(=O)c1cccnc1Sc1cc(OC)ccc1OC`, 11.1%.

`COc1ccc(OC)c(Sc2ncccc2C(=O)NCCSC)c1`: the cytotoxicity at 70.5 h is -8.11%. As for `CCSc1ncccc1C(=O)NCc1ccc(N(C)C)cc1`, the figure is -7.85%. For the compound `N#Cc1cnc(N2CCC3(CC2)OCCO3)nc1N`, the cytotoxicity at 70.5 h was -5.59%. To `O=C(N[C@H]1CCCC[C@@H]1O)c1ccc(-c2nc3ccccc3[nH]2)cc1` belongs -1.28%; to `O=C(N[C@H]1CCCC[C@@H]1O)c1ccc2nc(-c3ccccc3)[nH]c2c1`, 9.22%; to `O=C(NC[C@H]1CCCC[C@H]1O)c1cccc2[nH]c(-c3cccs3)nc12`, -5.24%. To `O=C([C@@H]1CCCN1c1nccc(Nc2ccccc2)n1)N1CCCCC1` belongs 20.9%. As for `CC(=O)N1N=C(c2ccccc2)OC1C(=O)NCCc1ccc(O)cc1` (configuration not stated), the figure is -1.25%. Turning to `CCOCCNC(=O)[C@@H]1CCCN1c1nccc(Nc2ccccc2)n1`, the cytotoxicity at 70.5 h was -1.64%. To `CC1(C)CC(NC(=O)c2cnn(-c3ccccc3F)c2N)CC(C)(C)N1` belongs 19.7%. As for `CN1CCC(N(C)C(=O)c2cnn(-c3ccccc3Br)c2N)CC1`, the figure is 0.0189%; as for `CC(=O)N1N=C(c2ccco2)OC1C(=O)NCCc1ccc(O)cc1` (configuration not stated), -2.51%.

Take `CC(=O)N1N=C(c2ccncc2)OC1C(=O)N(C)CCc1ccccc1` (configuration not stated): the cytotoxicity at 70.5 h turned out to be 4.98%.

With `CC(=O)N1N=C(c2ccco2)OC1C(=O)N(C)CCc1ccccc1` (configuration not stated), the cytotoxicity at 70.5 h came out at 20.4%.

In the case of `CC(=O)N1N=C(c2ccccc2)OC1C(=O)NCCN(C(C)C)C(C)C` (configuration not stated), the cytotoxicity at 70.5 h is -6.17%. To `CC(=O)N1N=C(c2ccccc2)OC1C(=O)NCC(=O)OC(C)(C)C` (configuration not stated) belongs -2.16%; to `CC(=O)N1N=C(c2cccs2)OC1C(=O)Nc1ccccc1` (configuration not stated), -8.33%.

Turning to `Cc1nc(-c2ccoc2)n(CC(=O)NCC(C)C)c1C`, the cytotoxicity at 70.5 h was 1.09%. Consider `CN(C)CCN(C)c1cc(N2CCN(c3ccccn3)CC2)ncn1`, for which the cytotoxicity at 70.5 h worked out at 13.5%. On to `CN(C)C(=O)c1cc2ncc(C(=O)NC3CCCC3)cc2n1C`, for which the cytotoxicity at 70.5 h was -0.145%. As for `Cc1csc2cc(C(=O)NC3CCCC3)cnc12`, the figure is 3.45%; as for `COCCN(CCOC)C(=O)c1cn(C(C)(C)C)c2ncccc12`, 3.1%; as for `CNC(=O)c1cn(C(C)(C)C)c2ncccc12`, -2.43%. Turning to `CC(C)(C)n1cc(C(=O)NCCN2CCOCC2)c2cccnc21`, the cytotoxicity at 70.5 h came out at 6.12%. To `CCNC(=O)c1cn(C(C)(C)C)c2ncccc12` belongs -0.924%; to `O=C(c1cn(Cc2ccccc2)c2ncccc12)N1CCCCC1`, 3.09%; to `CCN1CCN(C(=O)c2cn(Cc3ccccc3)c3ncccc23)CC1`, -0.985%. To `CN1CCCN(c2ncnc(N3CCOCC3)c2N)CC1` belongs -6.57%. To `CN(C)C(=O)c1cc(-c2ccccc2)[nH]n1` belongs -6.41%. With `COc1c(C(=O)N2CCNC(=O)C2)cnc2c1c(C)nn2C`, the cytotoxicity at 70.5 h came to 21%. To `NC1(CNC(=O)c2cc3ccccc3[nH]2)CCCC1` belongs 16%; to `Cn1c(C(=O)NCC2(N)CCCC2)cc2ccccc21`, 3.39%.

With `CN1CCC(NC(=O)c2cc(C3CCCCC3)nc3ccccc23)CC1`, the cytotoxicity at 70.5 h is -2.29%. As for `CC(C)(O)CN1CCC(=O)N(Cc2ccco2)Cc2cc(F)ccc21`, the figure is 3.68%; as for `CCOC(=O)[C@@H]1[C@@H](O)C(=O)N(C)C12CCN(C(=O)c1ccco1)CC2`, -4.06%.

`CCS(=O)(=O)N1CC(=O)N(CCOc2ccccc2)CC(O)C1` (configuration not stated): the cytotoxicity at 70.5 h is -2.23%. As for `CC1(C)CN(CC(O)C(C)(C)C)C(=O)CN(C(=O)c2ccccc2)C1` (configuration not stated), the figure is -4.32%. To `CCOC(=O)[C@@H]1[C@@H](OC)C(=O)N(C)C12CCN(C(=O)C(CC)CC)CC2` belongs -7.55%. To `CCOC(=O)[C@H]1[C@@H](O)C(=O)N(C)C12CCN(C(=O)OCC)CC2` belongs 0.864%; to `CCOC(=O)[C@H]1[C@@H](O)C(=O)N(C)C12CCN(C(=O)CC(C)(C)C)CC2`, -6.45%. In the case of `CCOC(=O)[C@H]1[C@@H](O)C(=O)N(C)C12CCN(C(=O)c1ccccc1)CC2`, the cytotoxicity at 70.5 h was -2.45%. To `COCC1N(C(=O)N2CCOCC2)[C@H]2CC[C@]1(O)CC2` (some centres not stated) belongs -1.43%; to `O=C(C1CCC1)N1C(CN2CCOCC2)[C@]2(O)CC[C@H]1CC2` (some centres not stated), 13.5%. On to `CN(C)C(=O)CN1C[C@H]2CCN(C(=O)C3CCCO3)CC[C@H]2S1(=O)=O` (some centres not stated), for which the cytotoxicity at 70.5 h was -4.76%. As for `Cc1nnc([C@@H]2C[C@H]3CN(C(=O)C4CC4)C[C@H]3O2)[nH]1`, the figure is -5.22%. Turning to `CC1CCCCN1C(=O)c1nc2c(n1C(C)C)CCN(C(=O)C1CC1)C2` (configuration not stated), the cytotoxicity at 70.5 h is -8.72%. Regarding `CN(C)CC(=O)N1Cc2cc(-c3cc[nH]n3)ccc2C1c1cnco1` (configuration not stated), the cytotoxicity at 70.5 h was -1.64%. As for `c1ccc(COCC2CNCc3nccn3C2)nc1` (configuration not stated), the figure is 0.439%; as for `O=C(c1cccnc1)N1Cc2[nH]nc(COCCO)c2C1`, -4.06%. To `O=C(C1CCCO1)N1CC[C@@H]2CN(Cc3ccccc3)S(=O)(=O)[C@@H]2CC1` (some centres not stated) belongs -6.03%; to `Cc1nnc([C@H]2C[C@@H]3CCN(C(=O)C4CCOCC4)C[C@H]3O2)[nH]1`, -9.85%; to `c1cn2c(n1)CNCC(COCC1CC1)C2` (configuration not stated), -9.26%.

Turning to `CCN1CC2(CC1=O)CN(C(=O)C(C)C)CCN(S(C)(=O)=O)C2` (configuration not stated), the cytotoxicity at 70.5 h came to 19.5%.

On to `COCCn1cnc(-c2cc(C(=O)NC(C)C)c3ccccn23)c1`, for which the cytotoxicity at 70.5 h was -6.05%. To `CC1N(CC2CC2)C(=O)COC12CCN(C(=O)c1ccno1)CC2` (configuration not stated) belongs -4.07%; to `CCc1noc(CN2CCN(Cc3cccs3)CC2)n1`, -10%; to `Cc1nn(C)c(C)c1C1COCCN1C(=O)c1cc(F)ccc1F` (configuration not stated), -16.4%.

For `Cc1cc(C(=O)N2CCCC2)ccc1NCC(=O)N1CCOCC1`, the cytotoxicity at 70.5 h was -6.05%. To `COc1c(C)cnc(CN2CCC(N(C)S(C)(=O)=O)CC2)c1C` belongs -16%; to `CCNC(=O)N(C)C1CCN(Cc2ncc(C)c(OC)c2C)CC1`, -8%. As to `CC(C)(C)N1CCN(C(=O)Nc2cc(C(F)(F)F)c[nH]c2=O)CC1`, the cytotoxicity at 70.5 h is 10.7%.

For `c1cc(CCN2CCN(c3ccc4nncn4n3)CC2)ccn1`, the cytotoxicity at 70.5 h was -11.9%.

`Cc1ccc(NC2CCN(C(=O)CCc3ccsc3)CC2)nn1`: the cytotoxicity at 70.5 h is -7.65%. To `CC(C)NC(=O)N(C)C(c1cccc(F)c1)c1ccccn1` (configuration not stated) belongs -7.96%; to `CS(=O)(=O)CCC(=O)Nc1cc(F)ccc1OCC1CCCO1` (configuration not stated), 12.1%; to `O=C(O)c1c[nH]c2cc(NS(=O)(=O)c3ccc(Cl)cc3F)ccc12`, -5.42%. As for `NC(=O)c1cc(C2CCCN(C(=O)CCc3cccs3)C2)n[nH]1` (configuration not stated), the figure is 10.7%; as for `Cc1ccc(NC(=O)N2CCCC2)c(OCC2CCCO2)c1` (configuration not stated), -16.8%. On to `Clc1ccccc1CCN1CCN(c2ccc3nncn3n2)CC1`, for which the cytotoxicity at 70.5 h is -16.3%. In the case of `CCOCC(O)CN1CCN(C(=O)c2cc(C)ccc2F)CC1` (configuration not stated), the cytotoxicity at 70.5 h is -3.47%.

In the case of `Nc1nc(Nc2ccccc2)cc(N2CCNCC2)n1`, the cytotoxicity at 70.5 h was -3.76%. As for `Cc1ncsc1C(=O)NCC1CCC2(CCNCC2)CO1` (configuration not stated), the figure is -6.8%; as for `Nc1nc(C(=O)NCC2CCC3(CCNCC3)CO2)cs1` (configuration not stated), -13.9%. As for `CN(Cc1cccs1)C1CCC[C@@H]2CN(C(=O)c3cnccn3)C[C@H]12` (some centres not stated), the figure is -7.78%; as for `Cn1cc(-c2nc3c(cc2C(=O)O)CCN(C(=O)C2CC2)CC3)cn1`, -7.13%; as for `Cc1oncc1C(=O)N1C[C@H]2CCCC(N(C)Cc3cccs3)[C@H]2C1` (some centres not stated), -8.63%. As for `N#Cc1cccc(N2CCCC3(C2)CN(c2ncc(F)cn2)CCO3)n1` (configuration not stated), the figure is 1.87%; as for `CCN(CC)c1ncc2c(c1C(=O)O)CCN(C1CCOC1)C2` (configuration not stated), 3.75%. Turning to `CN1CCC2(CCCN(C(=O)c3cncn3C)C2)CC1`, the cytotoxicity at 70.5 h was -7.82%.

`CN(Cc1ccco1)Cc1cnc2n1CCN(c1ncccn1)CC2`: the cytotoxicity at 70.5 h is -9.53%. As for `CN1CCN(c2ncc3c(c2C(=O)O)CCN(C2CCOC2)C3)CC1` (configuration not stated), the figure is -7.02%; as for `O=C(O)c1c(-c2ccncc2)ncc2c1CCN(C1CCOC1)C2` (configuration not stated), -9.17%; as for `CCCN1CCc2[nH]nc(C(=O)N3CCNC(=O)C3)c2C1`, -2.77%. As for `O=C(O)c1cc2c(nc1-c1ccsc1)CCN(C1CCOC1)CC2` (configuration not stated), the figure is -12.7%; as for `N#Cc1cccc(N2CCCC3(CNCCO3)C2)n1` (configuration not stated), -8.33%. To `O[C@H]1CCN(CC2CC2)[C@H]1Cc1ccncc1` belongs -4.14%.
